# Source: patent publication US11352350B2, “IRAK degraders and uses thereof” (Kymera Therapeutics, Inc., priority 2018, dated 2022)
# Where two headings read alike, the source gives them in different places.
# Columns and labels:
# [1] = molecular target: T1, IRAK4 (Homo sapiens (Human), UniProt Q9NWZ3); assay: hPBMC IRAK4 degradation flow assay; type: cell-based; conditions: hPBMC monocyte
# Protocol: hPBMC IRAK4 degradation flow assay. Frozen PBMCs were thawed into RPMI with 10% FBS and allowed to recover. On the same day as thawed, PBMCs were plated in 96 well plate, 90 uL per well. Compound plates were prepared and a 10 point, 5-fold dilution was performed with a final DMSO concentration of 0.1%. Compound 10 μL per well was added, sealed and incubated at 37° C., 5% C02 for 20 hours (for 4 hour treatment, compounds were prepared and added the following day). […] Cells were spun down and washed two times with PBS/0.5% BSA, aspirated to pellet and placed into −80° C. freezer until further processing for flow. On the flow run day, PBMC plates were thawed and samples were transferred to PCR plates. The pre-perm staining cocktail (CD3 Ax488/CD8 BUV805/CD14 BUV395/CD16/56 BV711/CD19 BV785) was added to samples and incubated for 30 minutes at room temperature. Samples were washed two times and permeabilized with methanol for 10 minutes at 4° C. […] Samples were washed two times with PBS/BSA and run on a BD LSRFortessa. Mononuclear cells are gated by SSCH/FSCH and single cells. Monocytes are then gated through CD14 positive gate and lymphocytes are gated through CD14 negative gate. To determine absolute DC50s and max degradation values, MFI values were normalized to DMSO max and 20 hour 10 μM min control. Twenty hour dose curves were calculated using a 4 parameter logistic regression curve fit, no constraints (Top doses were removed if hook effects were observed and the bottom was constrained to 0).
# [2] = test system: OCI-LY10; assay: CTG Cell Viability Assay - OCI-LY10; type: cell-based, human; conditions: OCI-LY10, 4 days, read-out: CTG Cell Viability Assay - OCI-LY10: Average external-IC50
# How it was run: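 Viability read by CellTiter-Glo luminescence after 4 days at 37° C under 5% CO2 with compound (top 10 μM final, 1:3 steps, 9 doses, DMSO 0.2%). Three-parameter logistic fit gave IC50.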
# [3] = molecular target: T1, IRAK4; assay: IRAK4 MSD degradation in OCI-LY10; type: cell-based
# How it was run: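 Remaining IRAK4 quantified by electrochemiluminescent MSD sandwich assay with two anti-IRAK4 antibodies. Compounds were dosed as 8 concentrations in 1:3 steps from a 1 to 10 μM final top on OCI-LY10 cells, incubated 4 to 24 h at 37° C. under 5% CO2. DC50 fitted with a three-parameter logistic curve.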
# [4] = 20 hrs, read-out: IRAK4 degradation in hPBMC monocyte: DC50
# [5] = OCI-LY10, 4 hrs, read-out: IRAK4 MSD degradation in OCI-LY10 at 4 hrs: DC50
# [6] = 20 hr, flow assay, read-out: IRAK4 degradation in hPBMC monocyte at 20 hr: Average external Abs DC50
# [7] = OCI-LY10, 4 hrs, MSD, read-out: IRAK4 MSD degradation in OCI-LY10 at 4 hrs: Average external-Abs DC50
# [8] = OCI-LY10, 24 hrs, MSD, read-out: IRAK4 MSD degradation in OCI-LY10 at 24 hrs: Average external-Abs DC50
# T1 sequence (Q9NWZ3 whole entry): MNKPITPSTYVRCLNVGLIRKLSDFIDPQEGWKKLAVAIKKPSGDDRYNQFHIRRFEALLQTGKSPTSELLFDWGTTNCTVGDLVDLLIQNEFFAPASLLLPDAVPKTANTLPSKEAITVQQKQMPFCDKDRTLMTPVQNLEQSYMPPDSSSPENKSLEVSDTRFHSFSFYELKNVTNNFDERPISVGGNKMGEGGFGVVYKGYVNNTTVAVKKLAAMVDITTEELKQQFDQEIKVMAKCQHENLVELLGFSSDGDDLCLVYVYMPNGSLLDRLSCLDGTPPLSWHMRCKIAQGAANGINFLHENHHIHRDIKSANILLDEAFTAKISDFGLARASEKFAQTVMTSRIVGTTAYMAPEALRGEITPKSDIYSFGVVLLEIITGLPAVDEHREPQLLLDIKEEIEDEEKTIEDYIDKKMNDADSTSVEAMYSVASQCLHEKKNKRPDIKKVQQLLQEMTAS
SMILES,"DC50 [1, 4]","IC50 ([2]; Homo sapiens, OCI-Ly10, 96 h)","DC50 [3, 5]","DC50 [1, 6]","DC50 [3, 7]","DC50 [3, 8]","DC50 ([3]; OCI-LY10, 24 hrs, read-out: IRAK4 MSD degradation in OCI-LY10 at 24 hrs: DC50)",IC50 [2]
Cn1c(=O)n(C2CCC(=O)NC2=O)c2cccc(C#CCC3CCN(C[C@H]4CC[C@H](n5cc(NC(=O)c6cnn7ccc(N8CCCOCC8)nc67)c(C(F)F)n5)CC4)CC3)c21 (stereo partly drawn) [I-523],< 10 nM,> 1000 nM,< 10 nM,,,,,
O=C1CCC(N2C(=O)c3cccc(NCCCOCC4CCN(C[C@H]5CC[C@H](n6cc7cc(NC(=O)c8cccc(C(F)(F)F)n8)c(C(F)F)cc7n6)CC5)CC4)c3C2=O)C(=O)N1 (stereo partly drawn) [I-327],,500 to 1000 nM,,10 to 100 nM,10 to 100 nM,10 to 100 nM,,
Cn1c(=O)n(C2CCC(=O)NC2=O)c2cccc(CCCOC3CCN(CCCCn4ncc(NC(=O)c5cnn6ccc(N7CCOCC7)nc56)c4C(F)F)CC3)c21 (stereo not drawn) [I-488],100 to 1000 nM,> 1000 nM,100 to 1000 nM,,,,,
CN(C[C@H]1CC[C@H](n2cc3cc(NC(=O)c4cccc(C(F)(F)F)n4)c(C(C)(C)O)cc3n2)CC1)C1CCC2(CC1)CC(CNc1cccc3c1C(=O)N(C1CCC(=O)NC1=O)C3=O)C2 (stereo partly drawn) [I-331],,< 50 nM,,10 to 100 nM,10 to 100 nM,< 10 nM,,
C[C@H](/C=C/c1cccc2c1n(C)c(=O)n2C1CCC(=O)NC1=O)OC1CCN(C[C@H]2CC[C@H](n3cc(NC(=O)c4cnn5ccc(N6C[C@H]7C[C@@H]6CO7)nc45)c(C(F)F)n3)CC2)CC1 (stereo partly drawn) [I-559],< 10 nM,> 1000 nM,,,,,,
O=C1CCC(n2c3cccc(CCCN4CC5(CCN(C(=O)[C@H]6CC[C@H](n7cc(NC(=O)c8cnn9ccc(N%10C[C@H]%11C[C@@H]%10CO%11)nc89)c(C(F)F)n7)CC6)CC5)C4)c3c3cccnc32)C(=O)N1 (stereo partly drawn) [I-445],< 10 nM,> 1000 nM,10 to 100 nM,,,,,
Cn1c(=O)n(C2CCC(=O)NC2=O)c2cccc(CCCN3CC4(CCN(C(=O)[C@H]5CC[C@H](n6cc(NC(=O)c7cnn8ccc(N9C[C@H]%10C[C@@H]9CO%10)nc78)c(C(F)F)n6)CC5)CC4)C3)c21 (stereo partly drawn) [I-407],,> 1000 nM,,< 10 nM,< 10 nM,,,
"Cn1c(=O)n(C2CCC(=O)NC2=O)c2ccc(C#CCCCNC[C@H]3CC[C@H](n4cc(NC(=O)c5cnn6ccc(N7C[C@H]8C[C@@H]7CO8)nc56)c(C(F)F)n4)CC3)cc21 (stereo in doubt) [I-512, N-[3-(difluoromethyl)-1-[4-[[5-[1-(2,6-dioxo-3-piperidyl)-3-methyl-2-oxo-benzimidazol-5-yl]pent-4-ynylamino]methyl]cyclohexyl]pyrazol-4-yl]-5-(2-oxa-5-azabicyclo[2.2.1]heptan-5-yl)pyrazolo[1,5-a]pyrimidine-3-carboxamide]",100 to 1000 nM,> 1000 nM,> 1000 nM,,,,,
Cn1c(=O)n(C2CCC(=O)NC2=O)c2cccc(CCCC3CCN(C[C@H]4CC[C@H](n5cc(NC(=O)c6cnn7ccc(N8CCCOCC8)nc67)c(C(F)F)n5)CC4)CC3)c21 (stereo partly drawn) [I-524],< 10 nM,> 1000 nM,< 10 nM,,,,,
CN(CCCOCCCNc1cccc2c1C(=O)N(C1CCC(=O)NC1=O)C2=O)C[C@H]1CC[C@H](n2cc3cc(NC(=O)c4cccc(C(F)(F)F)n4)c(C(C)(C)O)cc3n2)CC1 (stereo partly drawn) [I-333],,100 to 500 nM,,< 10 nM,10 to 100 nM,10 to 100 nM,,
C[C@@H]1CC(OCCc2cccc3c2n(C)c(=O)n3C2CCC(=O)NC2=O)C[C@H](C)N1C[C@H]1CC[C@H](n2cc(NC(=O)c3cnn4ccc(N5C[C@H]6C[C@@H]5CO6)nc34)c(C(F)F)n2)CC1 (stereo partly drawn) [I-558],< 10 nM,> 1000 nM,,,,,,
Cn1c(=O)n(C2CCC(=O)NC2=O)c2cccc(CCC(=O)N3CC4(CCN(C[C@H]5CC[C@H](n6cc(NC(=O)c7cnn8ccc(N9C[C@H]%10C[C@@H]9CO%10)nc78)c(C(F)F)n6)CC5)CC4)C3)c21 (stereo partly drawn) [I-410],,> 1000 nM,,< 10 nM,10 to 100 nM,,,
CN(CCCO[C@H]1C[C@H](Nc2cccc3c2C(=O)N(C2CCC(=O)NC2=O)C3=O)C1)C[C@H]1CC[C@H](n2cc(NC(=O)c3cnn4ccc(N5C[C@H]6C[C@@H]5CO6)nc34)c(C(F)F)n2)CC1 (stereo partly drawn) [I-444],< 10 nM,< 50 nM,100 to 1000 nM,,,,< 10 nM,
O=C1CCC(N2C(=O)c3cccc(NCC4CCN(C[C@H]5CC[C@H](n6cc(NC(=O)c7cnn8ccc(N9C[C@H]%10CC9CO%10)nc78)c(C(F)F)n6)CC5)CC4)c3C2=O)C(=O)N1 (stereo partly drawn) [I-442],100 to 1000 nM,< 50 nM,100 to 1000 nM,,,,,
Cn1c(=O)n(C2CCC(=O)NC2=O)c2cccc(CCCOC3CCN(C[C@H]4CC[C@H](n5cc(NC(=O)c6cnn7ccc(N8C[C@H]9CC[C@@H](C8)O9)nc67)c(C(F)F)n5)CC4)CC3)c21 (stereo partly drawn) [I-521],< 10 nM,> 1000 nM,10 to 100 nM,,,,,
O=C1CCC(n2c3cccc(CCCN4CC5(CCN(C[C@H]6CC[C@H](n7cc(NC(=O)c8cnn9ccc(N%10C[C@H]%11C[C@@H]%10CO%11)nc89)c(C(F)F)n7)CC6)CC5)C4)c3c3cccnc32)C(=O)N1 (stereo partly drawn) [I-519],100 to 1000 nM,100 to 500 nM,10 to 100 nM,,,,,
CC(C)(O)c1cc2nn([C@H]3CC[C@H](CN4CCC(COCCCNc5cccc6c5C(=O)N(C5CCC(=O)NC5=O)C6=O)CC4)CC3)cc2cc1NC(=O)c1cccc(C(F)(F)F)n1 (stereo partly drawn) [I-376],,100 to 500 nM,,< 10 nM,10 to 100 nM,10 to 100 nM,,
Cn1c(=O)n(C2CCC(=O)NC2=O)c2cccc(CCCN3CC4CN(C(=O)[C@H]5CC[C@H](n6cc(NC(=O)c7cnn8ccc(N9C[C@H]%10C[C@@H]9CO%10)nc78)c(C(F)F)n6)CC5)CC4C3)c21 (stereo partly drawn) [I-449],< 10 nM,> 1000 nM,< 10 nM,,,,,
C[C@@H](C#Cc1cccc2c1n(C)c(=O)n2C1CCC(=O)NC1=O)OC1CCN(C[C@H]2CC[C@H](n3cc(NC(=O)c4cnn5ccc(N6C[C@H]7C[C@@H]6CO7)nc45)c(C(F)F)n3)CC2)CC1 (stereo partly drawn) [I-544],100 to 1000 nM,> 1000 nM,10 to 100 nM,,,,,
CC(C)(O)c1cc2nn([C@H]3CC[C@H](CN4CCC5(CC4)CC(Nc4cccc6c4C(=O)N(C4CCC(=O)NC4=O)C6=O)C5)CC3)cc2cc1NC(=O)c1cccc(C(F)(F)F)n1 (stereo partly drawn) [I-326],,< 50 nM,,< 10 nM,< 10 nM,< 10 nM,,
Cn1c(=O)n(C2CCC(=O)NC2=O)c2cccc(CC3CCN(c4ccc(CN5CCC(n6cc(NC(=O)c7cnn8ccc(N9C[C@H]%10C[C@@H]9CO%10)nc78)c(C(F)F)n6)CC5)cc4)CC3)c21 (stereo partly drawn) [I-520],< 10 nM,> 1000 nM,10 to 100 nM,,,,,
Cn1c(=O)n(C2CCC(=O)NC2=O)c2cccc(C#CCOC3CCN(C[C@H]4CC[C@H](n5cc(NC(=O)c6cnn7ccc(N8CCCOCC8)nc67)c(C(F)F)n5)CC4)CC3)c21 (stereo partly drawn) [I-522],< 10 nM,100 to 500 nM,< 10 nM,,,,,
Cn1c(=O)n(C2CCC(=O)NC2=O)c2cccc(CCCN3CC4(CCN(C(=O)[C@H]5CC[C@H](n6cc(NC(=O)c7cnn8cccnc78)c(N7CCOCC7)n6)CC5)CC4)C3)c21 (stereo partly drawn) [I-494],100 to 1000 nM,> 1000 nM,100 to 1000 nM,,,,,
CN(CCCOCCCNc1cccc2c1C(=O)N(C1CCC(=O)NC1=O)C2=O)Cc1ccc(-n2cc(NC(=O)c3cnn4ccc(N5C[C@H]6C[C@@H]5CO6)nc34)c(C(F)F)n2)cc1 (stereo partly drawn) [I-320],,,,10 to 100 nM,> 1000 nM,,,> 1000 nM
C[C@@H]1CN(c2ccn3ncc(C(=O)Nc4cn([C@H]5CC[C@H](CN6CCC(OCC#Cc7cccc8c7n(C)c(=O)n8C7CCC(=O)NC7=O)CC6)CC5)nc4C(F)F)c3n2)C[C@@H](C)O1 (stereo partly drawn) [I-527],< 10 nM,,10 to 100 nM,,,,,
C[C@H](CCc1cccc2c1n(C)c(=O)n2C1CCC(=O)NC1=O)OC1CCN(C[C@H]2CC[C@H](n3cc(NC(=O)c4cnn5ccc(N6C[C@H]7C[C@@H]6CO7)nc45)c(C(F)F)n3)CC2)CC1 (stereo partly drawn) [I-557],< 10 nM,> 1000 nM,< 10 nM,,,,,
Cc1ccc(-c2nn([C@H]3CC[C@H](CN4CCC(OCCCc5cccc6c5n(C)c(=O)n6C5CCC(=O)NC5=O)CC4)CC3)cc2NC(=O)c2cnn3ccc(N4C[C@H]5C[C@@H]4CO5)nc23)nc1 (stereo partly drawn) [I-484],100 to 1000 nM,> 1000 nM,100 to 1000 nM,,,,,
